This is an account of results in patent publication US20240042066A1, “FIBROBLAST ACTIVATION PROTEIN INHIBITOR” (BOOMRAY PHARMACEUTICALS CO., LTD., priority 2020, published 2024).

One may read the half-life as the time in which the quantity being followed falls by half. The low end stands for fast loss, the high end for slow loss.

Series [1] can be described thus: Determination of the half-life in vivo by imaging healthy mice with 68Ga-TEFAPI-06. The following applies: PET imaging, SUV at the heart, 68Ga label, tail vein injection; for half-life: mouse, blood, intravenous, 37 MBq. The method, then: A germanium-gallium generator was eluted with 5 mL of 0.6 M high-purity hydrochloric acid to obtain Ga-68 hydrochloric acid solution. 1 mL of the eluted Ga-68 solution was taken, 100 μL of 3M sodium hydroxide and 130 μL of 3M sodium acetate were added to adjust the acidity, the final pH was 4.0, 50 μg of TEFAPI-06 precursor was added, and the reaction mixture was heated to 90° C., and maintained at the temperature for 10 minutes. The reaction solution was passed through a C18 column to remove free ions, and then the C18 column was eluted with ethanol solution. Labeled ^68Ga-TEFAPI-06 was obtained.
37 MBq labeled product was taken, 200 μL of normal saline was added for dilution, the drug was drawn with an insulin syringe for later use, and ethanol content in the drug was not higher than 5%. Healthy mice were anesthetized in advance and then placed on a PET/CT collection bed and an indwelling needle was placed at the tail vein. The syringe was attached to the indwelling needle, and collection of PET data was started at the zero moment of needle pushing. Collection time points were 0-60 min, 2 h, 3 h, 4 h, and 5 h respectively. After the collection, the data was reconstructed with professional software, and reconstruction conditions were to reconstruct the data at intervals of every minute for the first 5 minutes, reconstruct the data every 5 minutes in 5-60 minutes, and reconstruct the data at each of the other time points. The collected data was processed by PET reconstruction software to obtain continuous image. In PET processing software, a fixed region was depicted at the heart of the mouse, and SUV-Mean and SUV-Max values at the heart were obtained. The obtained SUV was simulated via data processing software.

Another series has as its system FAP. Kind of series: Competitive inhibition experiment of TEFAPI-06 in mice with PDX pancreatic cancer (68Ga-FAPI-04 PET). Format: in vivo. The method, then:
In order to verify the specificity of TEFAPI-06 against a FAP target, the inventors performed PET imaging on the same batch of mice before and after inhibition in the competitive inhibition experiment. According to the Y-86 long-duration PET imaging, the uptake of the tumor reached a peak between 18 hours and 24 hours after drug injection. Therefore, ^68Ga-FAPI-04 imaging was first performed on tumor-bearing mice to determine that the mice had tumor uptake. After 48 hours of standing to ensure metabolism of ^68Ga-FAPI-04, two mice were injected with 300 μg of TEFAPI-06 molecules, and 18 hours after injection, PET molecular imaging of ^68Ga-FAPI-04 was performed on the mice injected with TEFAPI-06 molecules.

In series [2] the test system is PDX mouse model of pancreatic cancer. Kind of series: Long-duration PET imaging with 86Y-TEFAPI-06 in a PDX mouse model of pancreatic cancer. Format: in vivo. The following applies: after 18 hours. The procedure:
Y-86 is a positron nuclide with half-life of 14.6 hours and can be radiolabeled with DOTA, and therefore, is very suitable for long-duration detection of the distribution of TEFAPI molecule in vivo. 1 mL of Y-86 hydrochloric acid was taken, 100 μL of 3M sodium hydroxide and 130 μL of 3M sodium acetate were added to adjust acidity, the final pH was 4.0, 50 μg of TEFAPI-06 precursor was added, and the reaction mixture was heated to 90° C., and maintained at the temperature for 10 minutes. The reaction solution was passed through a C18 column to remove free ions, and then the C18 column was eluted with ethanol solution. Labeled ^86Y-TEFAPI-06 was obtained. The labeled ^86Y-TEFAPI-06 was diluted with normal saline, and 7.4 Mbq of the resulting solution was injected to each mouse. PET scanning imaging was performed at 0.5, 2, 6, 12, 18, 24 and 36 h after injection, and PET image processing software was used for reconstruction. The obtained PET image is shown in FIG. 3, SUV values were marked at the tumor and heart of the mouse, and a curve was obtained based on the change of the SUV value with time.

The subject of a further series is PDX pancreatic cancer. Kind of series: Treatment of PDX pancreatic cancer in mice with 177Lu-TEFAPI-06. The class given is in vivo. The following applies: Lu-177 label, treatment dose 3.7 MBq. The source says: There were 5 mice in each group. The treatment dose was 3.7 MBq. […] In order to evaluate the therapeutic effect, the inventors performed physical examination via FAPI-04 imaging on mice before and after the treatment, and the results are shown in FIG. 5.

Take `N#C[C@@H]1CC(F)(F)CN1C(=O)CNC(=O)c1ccnc2ccc(OCCCN3CCN(C(=O)CN4CCN(CC(=O)O)CCN(CC(=O)O)CCN(CC(=O)O)CC4)CC3)cc12` [FAPI-04, reference compound]: in series [1], the half-life came out at 0.433 h.
In the case of `N#C[C@@H]1CC(F)(F)CN1C(=O)CNC(=O)c1ccnc2ccc(OCCCN3CCN(C(=O)[C@H](CCCCNC(=O)CN4CCN(CC(=O)O)CCN(CC(=O)O)CCN(CC(=O)O)CC4)NC(=O)CCCC(=O)NC(CCCCNC(=O)CCCc4ccc(I)cc4)C(=O)O)CC3)cc12` (some centres unmarked) [TEFAPI-06], in the series with FAP (300 μg TEFAPI-06, 18 hours before 68Ga-FAPI-04 PET, read 30 minutes after injection), the “tumor uptake of 68Ga-FAPI-04 after injection of TEFAPI-06 (inhibition)” value is “basically no additional uptake at the tumor”. For the same molecule, in the series on FAP (conclusion of competitive inhibition experiment), the “target site (specificity)” value is on record as “FAP”. Besides, in series [2], the kidney metabolism entry is listed as “basically cleared” and the “tumor/normal tissue uptake ratio” value is listed as “greater than 10”. For the same molecule, in series [1], the blood half-life came out at 6.63 h and the half-life turned out to be 6.67 h. In addition, the “tumor growth (tumor growth curve)” value with PDX pancreatic cancer is “significantly inhibited”.
